Experimental data: the supplement of paper PMC9663587

Columns and labels:
[1] = compound: T1, CN(C)C(=O)c1cc2cnc(Nc3ccc(N4CCNCC4)cn3)nc2n1C1CCCC1 [LEE011/Ribociclib]
[2] = compound: Cc1nc(-c2cn3c(n2)-c2ccc(-c4cnn(C(C)(C)C(N)=O)c4)cc2OCC3)n(C(C)C)n1 [Taselisib/GDC0032]
[3] = compound: CC[C@@H]1C(=O)N(C)c2cnc(Nc3ccc(C(=O)N[C@H]4CC[C@H](N5CCN(CC6CC6)CC5)CC4)cc3OC)nc2N1C(C)C [Volasertib/BI6727]
[4] = compound: CCN1CCN(Cc2ccc(Nc3ncc(F)c(-c4cc(F)c5nc(C)n(C(C)C)c5c4)n3)nc2)CC1
[5] = compound: O=C1NC(=O)[C@@H](c2cn3c4c(cccc24)CCC3)[C@@H]1c1c[nH]c2ccccc12 [Tivantinib/ARQ197]
[6] = compound: CS(=O)(=O)N1CCN(Cc2cc3nc(-c4cccc5[nH]ncc45)nc(N4CCOCC4)c3s2)CC1 [Pictilisib/GDC0941]
[7] = compound: CN(C)CC[C@H](CSc1ccccc1)Nc1ccc(S(=O)(=O)NC(=O)c2ccc(N3CCN(Cc4ccccc4-c4ccc(Cl)cc4)CC3)cc2)cc1[N+](=O)[O-] [ABT-737]
[8] = compound: T2, CCOc1cc2ncc(C#N)c(Nc3ccc(OCc4ccccn4)c(Cl)c3)c2cc1NC(=O)/C=C/CN(C)C [Neratinib/HKI272]
[9] = compound: Cc1cc(Nc2ncc(Cl)c(Nc3ccccc3S(=O)(=O)C(C)C)n2)c(OC(C)C)cc1C1CCNCC1 [Ceritinib/LDK378]
[10] = compound: T3, CC(=O)c1c(C)c2cnc(Nc3ccc(N4CCN(CCOCCOCCOCCNC(=O)COc5cccc6c5C(=O)N(C5CCC(=O)NC5=O)C6=O)CC4)cn3)nc2n(C2CCCC2)c1=O [BSJ-03-123]
[11] = compound: CC(C)n1nc(-c2ccc3oc(N)nc3c2)c2c(N)ncnc21 [INK128/MLN0128]
[12] = compound: CN(C)C/C=C/C(=O)Nc1ccc(C(=O)N2CCC[C@@H](Nc3ncc(Cl)c(-c4c[nH]c5ccccc45)n3)C2)cc1 [THZ531]
[13] = compound: CC(=O)O[C@H]1C(=O)[C@@]2(C)[C@H]([C@H](OC(=O)c3ccccc3)[C@]3(O)C[C@H](OC(=O)[C@H](O)[C@@H](NC(=O)c4ccccc4)c4ccccc4)C(C)=C1C3(C)C)[C@]1(OC(C)=O)CO[C@@H]1C[C@@H]2O [Paclitaxel]
[14] = compound: COc1ccc2c(c1)[C@]1(C[C@H]1c1ccc3c(/C=C/c4ccc(CN5C[C@@H](C)O[C@@H](C)C5)cc4)n[nH]c3c1)C(=O)N2
[15] = compound: T1, LEE011/Ribociclib; assay: GR value, 72 h; higher = faster growth (1 = untreated, <0 = killing);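 note: breast cancer and non-malignant breast epithelial lines, nine half-log doses, viable cells counted by Hoechst and LIVE/DEAD dye imaging versus time-zero plates and DMSO controls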
[16] = compound: CCc1cnn2c(NCc3ccc[n+]([O-])c3)cc(N3CCCC[C@H]3CCO)nc12; assay: as above
[17] = compound: CCN1CCN(Cc2ccc(Nc3ncc(F)c(-c4cc(F)c5nc(C)n(C(C)C)c5c4)n3)nc2)CC1; assay: as above
[18] = compound: C=CC(=O)Nc1ccc(C(=O)Nc2[nH]nc3c2CN(C(=O)N[C@H](CN(C)C)c2ccccc2)C3(C)C)cc1 [YKL-5-124]; assay: as above
[19] = compound: T2, Neratinib/HKI272; assay: as above
[20] = compound: T3, BSJ-03-123; assay: as above
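Throughout, for GR50, 72 h: breast cancer and non-malignant breast epithelial cell lines, Deep Dye Drop or Dye Drop imaging, nine half-log doses, GR normalized to time-zero plates and DMSO-only controls.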

MCF12A
GR50, 72 h [1]: > 10 µM
GR50, 72 h [2]: 1.11 µM
GR50, 72 h [3]: 0.0519 µM
GR50, 72 h [4]: 5.94 µM
GR50, 72 h [5]: 0.291 µM
GR50, 72 h [6]: 6.67 µM
GR50, 72 h [7]: > 10 µM
GR50, 72 h [8]: 0.422 µM
GR50, 72 h [9]: 7.62 µM
GR50, 72 h [10]: 5.35 µM
GR50, 72 h [11]: 0.022 µM
GR50, 72 h [12]: 0.632 µM
GR50, 72 h [13]: 0.00577 µM
GR50, 72 h [14]: 0.0103 µM
GR value ([15]; 0.001 µM): 0.967 GR
GR value ([15]; 0.003162 µM): 0.953 GR
GR value ([15]; 0.01 µM): 0.948 GR
GR value ([15]; 0.03162 µM): 0.927 GR
GR value ([15]; 0.1 µM): 0.984 GR
GR value ([15]; 0.3162 µM): 0.897 GR
GR value ([15]; 1 µM): 0.867 GR
GR value ([15]; 3.162 µM): 0.914 GR
GR value ([15]; 10 µM): 0.792 GR
GR value ([16]; 0.0001 µM): 1.03 GR
GR value ([16]; 0.0003162 µM): 0.99 GR
GR value ([16]; 0.001 µM): 1.03 GR
GR value ([16]; 0.003162 µM): 1.03 GR
GR value ([16]; 0.01 µM): 1.08 GR
GR value ([16]; 0.03162 µM): 0.685 GR
GR value ([16]; 0.1 µM): -0.289 GR
GR value ([16]; 1 µM): -0.327 GR
GR value ([17]; 0.001 µM): 0.987 GR
GR value ([17]; 0.003162 µM): 0.945 GR
GR value ([17]; 0.01 µM): 0.955 GR
GR value ([17]; 0.03162 µM): 0.943 GR
GR value ([17]; 0.1 µM): 0.872 GR
GR value ([17]; 0.3162 µM): 0.822 GR
GR value ([17]; 1 µM): 0.727 GR
GR value ([17]; 3.162 µM): 0.616 GR
GR value ([17]; 10 µM): 0.386 GR
GR value ([18]; 0.001 µM): 0.573 GR
GR value ([18]; 0.003162 µM): 0.316 GR
GR value ([18]; 0.01 µM): 0.235 GR
GR value ([18]; 0.03162 µM): 0.17 GR
GR value ([18]; 0.1 µM): 0.135 GR
GR value ([18]; 0.3162 µM): 0.153 GR
GR value ([18]; 1 µM): 0.131 GR
GR value ([18]; 3.162 µM): 0.107 GR
GR value ([18]; 10 µM): 0.0273 GR
GR value ([19]; 0.0003162 µM): 1.07 GR
GR value ([19]; 0.001 µM): 0.998 GR
GR value ([19]; 0.003162 µM): 1.01 GR
GR value ([19]; 0.01 µM): 1.04 GR
GR value ([19]; 0.03162 µM): 1.03 GR
GR value ([19]; 0.1 µM): 0.893 GR
GR value ([19]; 0.3162 µM): 0.546 GR
GR value ([19]; 1 µM): 0.336 GR
GR value ([19]; 3.162 µM): 0.0907 GR
GR value ([20]; 0.001 µM): 0.975 GR
GR value ([20]; 0.003162 µM): 0.912 GR
GR value ([20]; 0.01 µM): 0.971 GR
GR value ([20]; 0.03162 µM): 0.952 GR
GR value ([20]; 0.1 µM): 0.98 GR
GR value ([20]; 0.3162 µM): 0.942 GR
GR value ([20]; 1 µM): 0.883 GR
GR value ([20]; 3.162 µM): 0.753 GR
GR value ([20]; 10 µM): 0.126 GR
